Measured values from the NIST ThermoML archive (doi:10.1021/je0342320).
± gives the expanded uncertainty stated by the source.

Experiment: xn = mol fraction of the nth substance listed
Settings: Liquid, Vibrating tube method

CCCCCCCCCC [decane] + COC(=O)OC
mass density [kg/m3]
Settings	100 kPa	10000 kPa	20000 kPa	30000 kPa	40000 kPa
288.15 K, x2 = 0.0676	741.97 ± 0.44	749.1 ± 0.48	755.73 ± 0.52	761.88 ± 0.57	767.71 ± 0.62
288.15 K, x2 = 0.2303	767.95 ± 0.46	775.45 ± 0.48	782.4 ± 0.52	788.87 ± 0.56	794.93 ± 0.6
288.15 K, x2 = 0.2934	780.23 ± 0.46	787.82 ± 0.49	794.87 ± 0.52	801.43 ± 0.55	807.54 ± 0.59
288.15 K, x2 = 0.4055	804.52 ± 0.48	812.34 ± 0.5	819.59 ± 0.52	826.32 ± 0.55	832.65 ± 0.58
288.15 K, x2 = 0.502	829.72 ± 0.49	837.73 ± 0.51	844.78 ± 0.52	–	–
288.15 K, x2 = 0.5476	843.28 ± 0.5	851.4 ± 0.51	–	–	–
288.15 K, x2 = 0.665	883.8 ± 0.52	–	–	–	–
288.15 K, x2 = 0.7101	901.71 ± 0.53	–	–	–	–
288.15 K, x2 = 0.9062	1004.68 ± 0.58	1013.19 ± 0.59	1021.19 ± 0.59	1028.63 ± 0.6	1035.61 ± 0.6
293.15 K, x2 = 0.0676	738.16 ± 0.44	745.45 ± 0.48	752.25 ± 0.52	758.56 ± 0.57	764.48 ± 0.62
293.15 K, x2 = 0.2303	763.84 ± 0.46	771.54 ± 0.48	778.69 ± 0.52	785.31 ± 0.56	791.49 ± 0.6
293.15 K, x2 = 0.2934	775.99 ± 0.46	783.79 ± 0.49	791.01 ± 0.52	797.71 ± 0.56	803.97 ± 0.59
293.15 K, x2 = 0.4055	799.94 ± 0.48	807.99 ± 0.5	815.46 ± 0.52	822.34 ± 0.55	828.8 ± 0.58
293.15 K, x2 = 0.502	824.83 ± 0.49	833.07 ± 0.51	840.72 ± 0.53	847.8 ± 0.55	854.44 ± 0.57
293.15 K, x2 = 0.5476	838.17 ± 0.5	846.56 ± 0.51	854.35 ± 0.53	861.57 ± 0.55	868.38 ± 0.56
293.15 K, x2 = 0.5883	851.08 ± 0.5	859.46 ± 0.52	867.28 ± 0.53	874.53 ± 0.55	–
293.15 K, x2 = 0.665	878.01 ± 0.52	886.63 ± 0.53	894.64 ± 0.54	902.11 ± 0.55	–
293.15 K, x2 = 0.7101	896.39 ± 0.53	905.11 ± 0.54	913.24 ± 0.54	920.82 ± 0.55	–
293.15 K, x2 = 0.7993	936.74 ± 0.55	945.44 ± 0.55	953.46 ± 0.56	–	–
293.15 K, x2 = 0.9062	998.35 ± 0.58	1007.19 ± 0.59	1015.43 ± 0.59	1023.08 ± 0.59	1030.28 ± 0.6
298.15 K, x2 = 0.0676	734.31 ± 0.44	741.8 ± 0.48	748.75 ± 0.52	755.23 ± 0.57	761.28 ± 0.62
298.15 K, x2 = 0.2303	759.7 ± 0.46	767.62 ± 0.48	774.95 ± 0.52	781.73 ± 0.56	788.05 ± 0.6
298.15 K, x2 = 0.2934	771.64 ± 0.46	779.68 ± 0.49	787.1 ± 0.52	–	800.4 ± 0.6
298.15 K, x2 = 0.4055	795.37 ± 0.48	803.65 ± 0.5	811.3 ± 0.52	818.38 ± 0.55	825 ± 0.58
298.15 K, x2 = 0.502	819.95 ± 0.49	828.44 ± 0.5	836.29 ± 0.53	843.57 ± 0.55	850.35 ± 0.57
298.15 K, x2 = 0.5476	833.19 ± 0.5	841.77 ± 0.51	849.77 ± 0.53	857.18 ± 0.55	864.11 ± 0.57
298.15 K, x2 = 0.5883	845.93 ± 0.5	854.59 ± 0.51	862.62 ± 0.53	870.04 ± 0.55	876.98 ± 0.56
298.15 K, x2 = 0.665	872.69 ± 0.52	881.52 ± 0.53	889.73 ± 0.54	897.31 ± 0.55	904.39 ± 0.56
298.15 K, x2 = 0.7101	890.82 ± 0.53	899.75 ± 0.53	908.1 ± 0.54	915.87 ± 0.55	923.09 ± 0.56
298.15 K, x2 = 0.7993	930.88 ± 0.55	939.91 ± 0.55	948.28 ± 0.56	956.06 ± 0.56	–
298.15 K, x2 = 0.9062	992.18 ± 0.58	1001.24 ± 0.58	1009.74 ± 0.59	1017.62 ± 0.59	1025.01 ± 0.6
303.15 K, x2 = 0.0676	730.48 ± 0.44	738.15 ± 0.48	745.3 ± 0.52	751.9 ± 0.57	758.05 ± 0.63
303.15 K, x2 = 0.2303	755.57 ± 0.46	763.68 ± 0.48	771.21 ± 0.52	778.15 ± 0.56	784.61 ± 0.61
303.15 K, x2 = 0.2934	767.36 ± 0.46	775.58 ± 0.49	783.23 ± 0.52	790.27 ± 0.56	796.82 ± 0.6
303.15 K, x2 = 0.4055	790.78 ± 0.47	799.32 ± 0.5	807.2 ± 0.52	814.45 ± 0.55	821.19 ± 0.59
303.15 K, x2 = 0.502	815.09 ± 0.49	823.86 ± 0.5	831.94 ± 0.53	839.39 ± 0.55	846.29 ± 0.57
303.15 K, x2 = 0.5476	828.19 ± 0.49	837.03 ± 0.51	845.25 ± 0.53	852.82 ± 0.55	859.91 ± 0.57
303.15 K, x2 = 0.5883	840.82 ± 0.5	849.74 ± 0.51	858.02 ± 0.53	865.63 ± 0.55	872.72 ± 0.56
303.15 K, x2 = 0.665	867.33 ± 0.51	876.43 ± 0.52	884.86 ± 0.54	892.63 ± 0.55	899.87 ± 0.56
303.15 K, x2 = 0.7101	885.21 ± 0.52	894.46 ± 0.53	903.07 ± 0.54	911.02 ± 0.55	918.42 ± 0.56
303.15 K, x2 = 0.7993	925.09 ± 0.54	934.41 ± 0.55	943.03 ± 0.56	951.01 ± 0.56	958.41 ± 0.56
303.15 K, x2 = 0.9062	985.93 ± 0.58	995.33 ± 0.58	1004.09 ± 0.58	1012.2 ± 0.59	1019.78 ± 0.59
308.15 K, x2 = 0.0676	726.53 ± 0.44	734.45 ± 0.48	741.78 ± 0.52	–	–
308.15 K, x2 = 0.2303	751.35 ± 0.45	759.73 ± 0.48	767.45 ± 0.52	–	–
308.15 K, x2 = 0.2934	763 ± 0.46	771.51 ± 0.49	779.37 ± 0.52	–	–
308.15 K, x2 = 0.4055	786.2 ± 0.47	794.99 ± 0.5	803.1 ± 0.52	–	–
308.15 K, x2 = 0.502	810.29 ± 0.49	819.3 ± 0.5	–	–	–
308.15 K, x2 = 0.5476	823.17 ± 0.49	832.33 ± 0.51	–	–	–
308.15 K, x2 = 0.5883	835.71 ± 0.5	844.95 ± 0.51	–	–	–
308.15 K, x2 = 0.665	861.96 ± 0.51	871.37 ± 0.52	–	–	–
308.15 K, x2 = 0.7101	879.57 ± 0.52	889.19 ± 0.53	–	–	–
308.15 K, x2 = 0.7993	919.3 ± 0.54	928.93 ± 0.55	–	–	–
308.15 K, x2 = 0.9062	979.75 ± 0.57	989.47 ± 0.58	–	–	–
